Assay results reported in patent US5030654A, “Glutaramide diuretic agents” (Pfizer Inc., priority 1986, dated 1991).
Where two headings read alike, the source gives them in different places.

Columns and labels:
[1] = biological target: T1, neutral endopeptidase E.C.3.4.24.11 (Rattus norvegicus, UniProt P07861); assay: inhibition of the neutral endopeptidase E.C.3.4.24.11 in vitro; assay type: biochemical
T1 construct: neutral endopeptidase preparation from rat kidney; from tissue; host or cells: rat kidney
T1 sequence (P07861 1-750): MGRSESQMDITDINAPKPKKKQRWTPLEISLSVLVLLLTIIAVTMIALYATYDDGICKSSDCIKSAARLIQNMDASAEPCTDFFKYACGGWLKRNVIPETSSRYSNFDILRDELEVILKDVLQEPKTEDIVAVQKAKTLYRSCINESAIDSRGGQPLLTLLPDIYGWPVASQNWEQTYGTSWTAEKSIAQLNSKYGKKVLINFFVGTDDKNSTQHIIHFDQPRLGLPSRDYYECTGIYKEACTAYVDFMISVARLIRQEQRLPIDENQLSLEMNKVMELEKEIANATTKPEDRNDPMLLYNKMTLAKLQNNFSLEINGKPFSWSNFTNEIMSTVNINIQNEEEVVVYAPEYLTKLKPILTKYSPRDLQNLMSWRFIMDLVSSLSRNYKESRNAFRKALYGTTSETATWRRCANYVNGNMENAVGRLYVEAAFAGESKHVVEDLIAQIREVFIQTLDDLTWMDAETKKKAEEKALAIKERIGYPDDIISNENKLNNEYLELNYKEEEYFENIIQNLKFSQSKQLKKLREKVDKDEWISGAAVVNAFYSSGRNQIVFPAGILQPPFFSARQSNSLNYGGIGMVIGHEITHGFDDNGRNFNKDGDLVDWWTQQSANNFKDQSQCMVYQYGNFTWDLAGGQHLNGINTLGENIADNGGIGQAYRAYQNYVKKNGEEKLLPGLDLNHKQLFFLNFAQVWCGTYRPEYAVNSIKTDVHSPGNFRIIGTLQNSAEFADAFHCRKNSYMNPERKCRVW
Description: Activity against neutral endopeptidase E.C.3.4.24.11 is assessed using a procedure based on the assay described by J. T. Gafford, R. A. Skidgel, E. G. Erdos and L. B. Hersh, Biochemistry, 1983, […], 3265-3271. The method involves determining the concentration of compound required to reduce by 50% the rate of release of radiolabelled hippuric acid from hippuryl-L-phenylalanyl-L-arginine by a neutral endopeptidase preparation from rat kidney.
(§1) The activity of the racemate and separated enantiomers of the cis-4-{1-[2-carboxy-3-(2-methoxyethoxy)propyl]-1-cyclopentanecarboxamido}- 1-cyclohexanecarboxylic acid was assessed by measuring their ability to inhibit the neutral endopeptidase E.C.3.4.24.11 in vitro or to induce natriuresis in mice in vivo following the procedures described herein.
The compounds were assessed for their ability to inhibit the neutral endopeptidase E.C.3.4.24.11 following the procedure described herein.

[2] = test system: male mice (Charles River CDl); assay: natriuresis in mice in vivo (saline loaded conscious mice); design: species or system mouse; settings: i.v. via tail vein, urine collected for two hours
Description: The activity of the compounds as diuretic agents is determined by measuring their ability to increase urine output and sodium ion excretion in saline loaded conscious mice. In this test, male mice (Charles River CDl, 22-28 g) are acclimatised and starved overnight in metabowls. The mice are dosed intravenously via the tail vein, with the test compound dissolved in a volume of saline solution equivalent to 2.5% of body weight. Urine samples are collected each hour for two hours in pre-weighed tubes and analysed for electrolyte concentration. Urine volume and sodium ion concentration from the test animals are compared to a control group which received only saline.
as §1

[3] = neutral endopeptidase E.C.3.4.24.11, rat kidney preparation (Example 454), read-out: IC50
[4] = in vitro, neutral endopeptidase preparation from rat kidney, racemate and enantiomers (Example 445), read-out: IC50 against E.C.3.4.24.11

Compound | IC50 [1, 3] | Natriuresis in mouse (i.v.) [2] | IC50 [1, 4]
COCCC(CC1(C(=O)N[C@H]2CC[C@@H](C(=O)O)CC2)CCCC1)C(=O)O (relative stereo) [Example 217, 3-{1-[(cis-4-Carboxy-cyclohexyl)carbamoyl]cyclopentyl}-2-(2-methoxyethyl)propanoic acid] | 50 nM | – | –
CCCCC1CC(NC(=O)C2(C[C@@H](COCCOC)C(=O)O)CCCC2)CCC1C(=O)O (stereo partly drawn) [Example 451, 3-[1-(c-4-Carboxy-t-3-butyl-r-1-carbamoyl)cyclopentyl]-2S-(2-methoxyethoxymethyl)propanoic acid] | 7.9 nM | – | –
CCCCC1CC(NC(=O)C2(CC(CCOC)C(=O)O)CCCC2)CCC1C(=O)O (centres unmarked) [Example 453, 3-[1-(c-4-Carboxy-c-3-butylcyclohexyl-r-1-carbamoyl)cyclopentyl]-2-(2-methoxyethyl)propanoic acid] | 8 nM | – | –
COCCOC[C@@H](CC1(C(=O)N[C@H]2CC[C@@H](C(=O)O)CC2)CCCC1)C(=O)O [(-) R, cis-4-{1-[2-carboxy-3-(2-methoxyethoxy)propyl]-1-cyclopentanecarboxamido}-1-cyclohexanecarboxylic acid] | – | inactive at 3 mg/kg | < 1000 nM
COCCOCC(CC1(C(=O)N[C@H]2CC[C@@H](C(=O)O)CC2)CCCC1)C(=O)O (mixture of isomers) [(±) R,S, cis-4-{1-[2-carboxy-3-(2-methoxyethoxy)propyl]-1-cyclopentanecarboxamido}-1-cyclohexanecarboxylic acid] | – | active at 3 mg/kg | 48 nM
CCCCC1CC(NC(=O)C2(C[C@@H](COCCOC)C(=O)O)CCCC2)CCC1C(=O)O (single isomer, unassigned; isomer a) [Example 449 isomer A, 3-[1-(c-4-Carboxy-c-3-butylcyclohexyl-r-1-carbamoyl)cyclopentyl]-2S-(2-methoxyethoxymethyl)propanoic acid] | 3.6 nM | – | –
COCCOC[C@H](CC1(C(=O)N[C@H]2CC[C@@H](C(=O)O)CC2)CCCC1)C(=O)O [(+) S, (S)-cis-4-{1-[2-Carboxy-3-(2-methoxyethoxy)propyl]-1-cyclopentanecarboxamido}-1-cyclohexanecarboxylic acid] | – | active at 1.5 mg/kg | 39 nM
CCCCC1CC(NC(=O)C2(C[C@@H](COCCOC)C(=O)O)CCCC2)CCC1C(=O)O (single isomer, unassigned) [Example 449 isomer B, 3-[1-(c-4-Carboxy-c-3-butylcyclohexyl-r-1-carbamoyl)cyclopentyl]-2S-(2-methoxyethoxymethyl)propanoic acid] | 5.6 nM | – | –
